Results as given in PubChem BioAssay (NCI).
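Five compound concentrations were applied to cells in 96-well plates for 48 hours; endpoints were derived by simple linear interpolation of the resulting dose-response curve. The concentration for 50% growth inhibition is given as GI50. The concentration for full growth arrest is given as TGI.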

Columns and labels:
Experiment in all cases: NCI anticancer screen, dose series, 48 h
COLO 205 colon = tested on: COLO 205 colon
TK-10 renal = tested on: TK-10 renal
EKVX NSCLC = tested on: EKVX NSCLC
SNB-19 CNS = tested on: SNB-19 CNS
CAKI-1 renal = tested on: CAKI-1 renal
SR leukemia = tested on: SR leukemia
KM12 colon = tested on: KM12 colon
T-47D breast = tested on: T-47D breast
SN12C renal = tested on: SN12C renal
UO-31 renal = tested on: UO-31 renal
HCT-116 colon = tested on: HCT-116 colon
K-562 leukemia = tested on: K-562 leukemia
U251 CNS = tested on: U251 CNS
BT-549 breast = tested on: BT-549 breast
NCI-H522 lung = tested on: NCI-H522 lung
NCI/ADR-RES ovarian = tested on: NCI/ADR-RES ovarian
HL-60(TB) leukemia = tested on: HL-60(TB) leukemia
NCI-H23 lung = tested on: NCI-H23 lung
SF-539 CNS = tested on: SF-539 CNS
SK-OV-3 ovarian = tested on: SK-OV-3 ovarian
IGROV1 ovarian = tested on: IGROV1 ovarian
UACC-62 melanoma = tested on: UACC-62 melanoma
SK-MEL-5 melanoma = tested on: SK-MEL-5 melanoma
HOP-92 NSCLC = tested on: HOP-92 NSCLC
CCRF-CEM leukemia = tested on: CCRF-CEM leukemia
RXF 393 renal = tested on: RXF 393 renal
SK-MEL-28 melanoma = tested on: SK-MEL-28 melanoma
OVCAR-5 ovarian = tested on: OVCAR-5 ovarian
A549 NSCLC = tested on: A549 NSCLC
UACC-257 melanoma = tested on: UACC-257 melanoma
HCT-15 colon = tested on: HCT-15 colon
SNB-75 CNS = tested on: SNB-75 CNS
SW-620 colon = tested on: SW-620 colon
HOP-62 NSCLC = tested on: HOP-62 NSCLC
MALME-3M melanoma = tested on: MALME-3M melanoma
786-0 renal = tested on: 786-0 renal
PC-3 prostate = tested on: PC-3 prostate
HT29 colon = tested on: HT29 colon
SK-MEL-2 melanoma = tested on: SK-MEL-2 melanoma
SF-295 CNS = tested on: SF-295 CNS
SF-268 CNS = tested on: SF-268 CNS
RPMI-8226 leukemia = tested on: RPMI-8226 leukemia
MOLT-4 leukemia = tested on: MOLT-4 leukemia
DU-145 prostate = tested on: DU-145 prostate
OVCAR-8 ovarian = tested on: OVCAR-8 ovarian
NCI-H226 lung = tested on: NCI-H226 lung
MCF7 breast = tested on: MCF7 breast
LOX IMVI melanoma = tested on: LOX IMVI melanoma
OVCAR-4 ovarian = tested on: OVCAR-4 ovarian
HCC-2998 colon = tested on: HCC-2998 colon
OVCAR-3 ovarian = tested on: OVCAR-3 ovarian
NCI-H460 lung = tested on: NCI-H460 lung
M14 melanoma = tested on: M14 melanoma
ACHN renal = tested on: ACHN renal
A498 renal = tested on: A498 renal
MDA-MB-231 breast = tested on: MDA-MB-231 breast
HS 578T breast = tested on: HS 578T breast
MDA-MB-435 = tested on: MDA-MB-435

O=C1NC(=O)C(c2ccccc2Cl)=C1Nc1cccc(O)c1
GI50 (COLO 205 colon): 7.17 µM | TGI (COLO 205 colon): > 21.6 µM | GI50 (TK-10 renal): 10.7 µM | TGI (TK-10 renal): > 25 µM | GI50 (EKVX NSCLC): > 22.5 µM | TGI (EKVX NSCLC): > 25 µM | GI50 (SNB-19 CNS): 21.4 µM | TGI (SNB-19 CNS): > 25 µM | GI50 (CAKI-1 renal): 4.41 µM | TGI (CAKI-1 renal): > 25 µM | GI50 (SR leukemia): 1.97 µM | TGI (SR leukemia): > 25 µM | GI50 (KM12 colon): 2.51 µM | TGI (KM12 colon): > 25 µM | GI50 (T-47D breast): > 10.4 µM | TGI (T-47D breast): > 25 µM | GI50 (SN12C renal): > 19.4 µM | TGI (SN12C renal): > 25 µM | GI50 (UO-31 renal): 7.24 µM | TGI (UO-31 renal): > 25 µM | GI50 (HCT-116 colon): 7.51 µM | TGI (HCT-116 colon): > 25 µM | GI50 (K-562 leukemia): 1.32 µM | TGI (K-562 leukemia): > 25 µM | GI50 (U251 CNS): 9.32 µM | TGI (U251 CNS): > 25 µM | GI50 (BT-549 breast): 9.62 µM | TGI (BT-549 breast): > 25 µM | GI50 (NCI-H522 lung): 2.17 µM | TGI (NCI-H522 lung): > 25 µM | GI50 (NCI/ADR-RES ovarian): 3.2 µM | TGI (NCI/ADR-RES ovarian): > 25 µM | GI50 (HL-60(TB) leukemia): 4.93 µM | TGI (HL-60(TB) leukemia): > 25 µM | GI50 (NCI-H23 lung): 10.5 µM | TGI (NCI-H23 lung): > 25 µM | GI50 (SF-539 CNS): 8.93 µM | TGI (SF-539 CNS): > 25 µM | GI50 (SK-OV-3 ovarian): 4.99 µM | TGI (SK-OV-3 ovarian): > 25 µM | GI50 (IGROV1 ovarian): > 25 µM | TGI (IGROV1 ovarian): > 25 µM | GI50 (UACC-62 melanoma): 2.25 µM | TGI (UACC-62 melanoma): > 25 µM | GI50 (SK-MEL-5 melanoma): 1.67 µM | TGI (SK-MEL-5 melanoma): > 25 µM | GI50 (HOP-92 NSCLC): 8.53 µM | TGI (HOP-92 NSCLC): > 25 µM | GI50 (CCRF-CEM leukemia): 7.05 µM | TGI (CCRF-CEM leukemia): > 25 µM | GI50 (RXF 393 renal): 1.92 µM | TGI (RXF 393 renal): > 21.1 µM | GI50 (SK-MEL-28 melanoma): > 25 µM | TGI (SK-MEL-28 melanoma): > 25 µM | GI50 (OVCAR-5 ovarian): > 20.5 µM | TGI (OVCAR-5 ovarian): > 25 µM | GI50 (A549 NSCLC): 11.2 µM | TGI (A549 NSCLC): > 25 µM | GI50 (UACC-257 melanoma): > 25 µM | TGI (UACC-257 melanoma): > 25 µM | GI50 (HCT-15 colon): 2.47 µM | TGI (HCT-15 colon): > 25 µM | GI50 (SNB-75 CNS): 6.76 µM | TGI (SNB-75 CNS): > 20.2 µM | GI50 (SW-620 colon): 1.47 µM | TGI (SW-620 colon): > 25 µM | GI50 (HOP-62 NSCLC): 3.89 µM | TGI (HOP-62 NSCLC): > 25 µM | GI50 (MALME-3M melanoma): > 25 µM | TGI (MALME-3M melanoma): > 25 µM | GI50 (786-0 renal): 13.8 µM | TGI (786-0 renal): > 25 µM | GI50 (PC-3 prostate): 11.3 µM | TGI (PC-3 prostate): > 25 µM | GI50 (HT29 colon): 2.79 µM | TGI (HT29 colon): > 25 µM | GI50 (SK-MEL-2 melanoma): 1.99 µM | TGI (SK-MEL-2 melanoma): > 25 µM | GI50 (SF-295 CNS): 8.32 µM | TGI (SF-295 CNS): > 25 µM | GI50 (SF-268 CNS): 12.5 µM | TGI (SF-268 CNS): > 25 µM | GI50 (RPMI-8226 leukemia): 21.4 µM | TGI (RPMI-8226 leukemia): > 25 µM | GI50 (MOLT-4 leukemia): > 25 µM | TGI (MOLT-4 leukemia): > 25 µM | GI50 (DU-145 prostate): 9.29 µM | TGI (DU-145 prostate): > 25 µM | GI50 (OVCAR-8 ovarian): 24.6 µM | TGI (OVCAR-8 ovarian): > 25 µM | GI50 (NCI-H226 lung): 6.19 µM | TGI (NCI-H226 lung): > 25 µM | GI50 (MCF7 breast): 3.99 µM | TGI (MCF7 breast): > 20.7 µM | GI50 (LOX IMVI melanoma): 15.1 µM | TGI (LOX IMVI melanoma): > 25 µM | GI50 (OVCAR-4 ovarian): 7.02 µM | TGI (OVCAR-4 ovarian): > 25 µM | GI50 (HCC-2998 colon): > 25 µM | TGI (HCC-2998 colon): > 25 µM | GI50 (OVCAR-3 ovarian): 4.95 µM | TGI (OVCAR-3 ovarian): > 25 µM | GI50 (NCI-H460 lung): 7.12 µM | TGI (NCI-H460 lung): > 25 µM | GI50 (M14 melanoma): > 25 µM | TGI (M14 melanoma): > 25 µM | GI50 (ACHN renal): > 25 µM | TGI (ACHN renal): > 25 µM | GI50 (A498 renal): 6.49 µM | TGI (A498 renal): > 25 µM | GI50 (MDA-MB-231 breast): > 25 µM | TGI (MDA-MB-231 breast): > 25 µM | GI50 (HS 578T breast): 1.82 µM | TGI (HS 578T breast): 17.7 µM

NC(=O)c1ccccc1NC(=O)C(=O)C(c1cnc2ccc([N+](=O)[O-])cc2n1)[N+](=O)[O-] (centres undefined)
TGI (TK-10 renal): > 100 µM | TGI (EKVX NSCLC): > 100 µM | TGI (SNB-19 CNS): > 100 µM | TGI (CAKI-1 renal): > 100 µM | TGI (KM12 colon): > 100 µM | TGI (T-47D breast): > 100 µM | TGI (SN12C renal): > 100 µM | TGI (UO-31 renal): > 100 µM | TGI (HCT-116 colon): > 100 µM | TGI (K-562 leukemia): > 100 µM | TGI (U251 CNS): > 100 µM | TGI (BT-549 breast): > 100 µM | TGI (NCI-H522 lung): > 100 µM | TGI (NCI/ADR-RES ovarian): > 100 µM | TGI (HL-60(TB) leukemia): > 100 µM | TGI (NCI-H23 lung): > 100 µM | TGI (SF-539 CNS): > 100 µM | TGI (SK-OV-3 ovarian): > 100 µM | TGI (IGROV1 ovarian): > 100 µM | TGI (UACC-62 melanoma): > 100 µM | TGI (SK-MEL-5 melanoma): > 100 µM | TGI (HOP-92 NSCLC): > 100 µM | TGI (CCRF-CEM leukemia): > 100 µM | TGI (RXF 393 renal): > 100 µM | TGI (SK-MEL-28 melanoma): > 100 µM | TGI (OVCAR-5 ovarian): > 100 µM | TGI (A549 NSCLC): > 100 µM | TGI (UACC-257 melanoma): > 100 µM | TGI (HCT-15 colon): > 100 µM | TGI (SNB-75 CNS): > 100 µM | TGI (SW-620 colon): > 100 µM | TGI (HOP-62 NSCLC): > 100 µM | TGI (MALME-3M melanoma): > 100 µM | TGI (786-0 renal): > 100 µM | TGI (PC-3 prostate): > 100 µM | TGI (HT29 colon): > 100 µM | TGI (SK-MEL-2 melanoma): > 100 µM | TGI (SF-295 CNS): > 100 µM | TGI (SF-268 CNS): > 100 µM | TGI (RPMI-8226 leukemia): > 100 µM | TGI (MOLT-4 leukemia): > 100 µM | TGI (OVCAR-8 ovarian): > 100 µM | TGI (NCI-H226 lung): > 100 µM | TGI (MCF7 breast): > 100 µM | TGI (MDA-MB-435): > 100 µM | TGI (LOX IMVI melanoma): > 100 µM | TGI (OVCAR-4 ovarian): > 100 µM | TGI (HCC-2998 colon): > 100 µM | TGI (OVCAR-3 ovarian): > 100 µM | TGI (NCI-H460 lung): > 100 µM | TGI (M14 melanoma): > 100 µM | TGI (ACHN renal): > 100 µM | TGI (A498 renal): > 100 µM | TGI (MDA-MB-231 breast): > 100 µM | TGI (HS 578T breast): > 100 µM
